Data on 58 compounds can be found in US12121524B2, “DNA-PK inhibitors” (VERTEX PHARMACEUTICALS INCORPORATED, priority 2018, dated 2024).

This test addresses DNA-PK (Homo sapiens, UniProt P78527). Kind of test: DNA-PK inhibition assay (standard radiometric 33P-ATP kinase assay). The class given is biochemical. The note with it: 100 μM ATP, approx. 6 nM DNA-PK. How it is done:
Compounds were screened for their ability to inhibit DNA-PK kinase using a standard radiometric assay. Briefly, in this kinase assay the transfer of the terminal ^33P-phosphate in ^33P-ATP to a peptide substrate is interrogated. The assay was carried out in 384-well plates to a final volume of 50 μL per well containing approximately 6 nM DNA-PK, 50 mM HEPES (pH 7.5), 10 mM MgCl2, 25 mM NaCl, 0.01% BSA, 1 mM DTT, 10 μg/mL sheared double-stranded DNA (obtained from Sigma), 0.8 mg/mL DNA-PK peptide (Glu-Pro-Pro-Leu-Ser-Gln-Glu-Ala-Phe-Ala-Asp-Leu-Trp-Lys-Lys-Lys, obtained from American Peptide), and 100 μM ATP.
Accordingly, compounds of the invention were dissolved in DMSO to make 10 mM initial stock solutions. Serial dilutions in DMSO were then made to obtain the final solutions for the assay. A 0.75 μL aliquot of DMSO or inhibitor in DMSO was added to each well, followed by the addition of ATP substrate solution containing ^33P-ATP (obtained from Perkin Elmer). The reaction was started by the addition of DNA-PK, peptide and ds-DNA. After 45 min, the reaction was quenched with 25 μL of 5% phosphoric acid. The reaction mixture was transferred to MultiScreen HTS 384-well PH plates (obtained from Millipore), allowed to bind for one hour, and washed three times with 1% phosphoric acid. Following the addition of 50 μL of Ultima Gold™ high efficiency scintillant (obtained from Perkin Elmer), the samples were counted in a Packard TopCount NXT Microplate Scintillation and Luminescence Counter (Packard BioScience). The Ki values were calculated using Microsoft Excel Solver macros to fit the data to the kinetic model for competitive tight-binding inhibition.

pKi: −log10 of the molar value.

For the compound `CNC(=O)c1ccc(N[C@H]2CC[C@@H](Oc3cc(N4CCOCC4)cc4nccnc34)CC2)nc1` [Compound 144], the pKi is > 7.00.

For `COC(=O)c1cccnc1N[C@H]1CC[C@@H](Oc2cc(N3CCOCC3)cc3nccnc23)CC1` [Compound 202], the negative logarithm of the Ki (pKi) is > 7.00.

For `Clc1cc(N[C@H]2CC[C@@H](Oc3cc(N4CCOCC4)cc4nccnc34)CC2)ncn1` [Compound 39], the pKi is > 7.00.

In the case of `CNC(=O)c1cnc(N[C@H]2CC[C@@H](Oc3cc(N4CCOCC4)cc4nccnc34)CC2)nc1` [Compound 71], the pKi was > 7.00.

`CCOc1cnc(N[C@H]2CC[C@@H](Oc3cc(N4CCOCC4)cc4nccnc34)CC2)nc1` [Compound 233]: the pKi is > 7.00.

Turning to `N#Cc1ccnc(N[C@H]2CC[C@@H](Oc3cc(N4CCOCC4)cc4nccnc34)CC2)n1` [Compound 207], the pKi was > 7.00.

On to `COc1cnc(N[C@H]2CC[C@@H](Oc3cc(N4CCOCC4)cc4nccnc34)CC2)nc1` [Compound 134, 5-methoxy-N-((cis)-4-((7-morpholinoquinoxalin-5-yl)oxy)cyclohexyl)pyrimidin-2-amine], for which the pKi is > 7.00.

As for `OCc1cnc(N[C@H]2CC[C@@H](Oc3cc(N4CCOCC4)cc4nccnc34)CC2)nc1` [Compound 94], the pKi is > 7.00.

Turning to `COc1ccc(N[C@H]2CC[C@@H](Oc3cc(N4CCOCC4)cc4nccnc34)CC2)nc1` [Compound 206], the negative-log Ki (pKi) was > 7.00.

Regarding `Cc1cc(C)nc(N[C@H]2CC[C@@H](Oc3cc(N4CCOCC4)cc4nccnc34)CC2)n1` [Compound 52], the pKi is > 7.00.

Consider `O=C(O)c1cnc(N[C@H]2CC[C@@H](Oc3cc(N4CCOCC4)cc4nccnc34)CC2)nc1` [Compound 69], for which the pKi is > 7.00.

Take `Cc1cnc2c(O[C@H]3CC[C@@H](Nc4ncccn4)CC3)cc(N3CCOCC3)cc2n1` [Compound 190]: the negative-log Ki (pKi) was > 7.00.

In the case of `Cc1ccnc(N[C@H]2CC[C@@H](Oc3cc(N4CCOCC4)cc4nccnc34)CC2)n1` [Compound 246], the pKi is > 7.00.

As to `Cc1cnc2cc(N3CCOCC3)cc(O[C@H]3CC[C@@H](Nc4ncccn4)CC3)c2n1` [Compound 191], the negative-log Ki (pKi) was > 7.00.

For the compound `Brc1ccc(N[C@H]2CC[C@@H](Oc3cc(N4CCOCC4)cc4nccnc34)CC2)nc1` [Compound 164], the pKi is > 7.00.

Regarding `Clc1nc(N[C@H]2CC[C@@H](Oc3cc(N4CCOCC4)cc4nccnc34)CC2)nc(C2CC2)n1` [Compound 605], the pKi is > 7.00.

For `COc1cc(N[C@H]2CC[C@@H](Oc3cc(N4CCOCC4)cc4nccnc34)CC2)nc(OC)n1` [Compound 245], the pKi was > 7.00.

As to `CN1CCN(c2ccc(C(=O)N[C@H]3CC[C@@H](Oc4cc(N5CCOCC5)cc5nccnc45)CC3)cc2F)CC1` [Compound 200], the negative logarithm of the Ki (pKi) is > 7.00.

As to `COCCNc1cc(N[C@H]2CC[C@@H](Oc3cc(N4CCOCC4)cc4nccnc34)CC2)ncn1` [Compound 263], the negative-log Ki (pKi) is > 7.00.

Consider `NC(=O)c1ccc(N[C@H]2CC[C@@H](Oc3cc(N4CCOCC4)cc4nccnc34)CC2)nc1` [Compound 140], for which the negative logarithm of the Ki (pKi) is > 7.00.

Regarding `c1cnc(N[C@H]2CC[C@@H](Nc3cc(N4CCOCC4)cc4nccnc34)CC2)nc1` [Compound 18, N^1-(7-morpholinoquinoxalin-5-yl)-N^4-(pyrimidin-2-yl)cyclohexane-1,4-diamine], the pKi was > 7.00.

Consider `c1cc(N[C@H]2CC[C@@H](Oc3cc(N4CCOCC4)cc4nccnc34)CC2)ccn1` [Compound 273], for which the pKi is > 7.00.

For `Cc1cnc(N[C@H]2CC[C@@H](Oc3cc(N4CCOCC4)cc4nccnc34)CC2)nc1` [Compound 142], the negative-log Ki (pKi) is > 7.00.

Regarding `Fc1cc(N[C@H]2CC[C@@H](Oc3cc(N4CCOCC4)cc4nccnc34)CC2)ncn1` [Compound 51], the negative logarithm of the Ki (pKi) is > 7.00.

`Cc1ccc(N[C@H]2CC[C@@H](Oc3cc(N4CCOCC4)cc4nccnc34)CC2)nc1` [Compound 256]: the pKi was > 7.00.

Consider `N#Cc1cccnc1N[C@H]1CC[C@@H](Oc2cc(N3CCOCC3)cc3nccnc23)CC1` [Compound 87], for which the pKi is > 7.00.

In the case of `COC(=O)c1cnc(N[C@H]2CC[C@@H](Nc3cc(N4CCOCC4)cc4nccnc34)CC2)cn1` [Compound 32], the negative logarithm of the Ki (pKi) is > 7.00.

In the case of `COc1nc(C)nc(N[C@H]2CC[C@@H](Oc3cc(N4CCOCC4)cc4nccnc34)CC2)n1` [Compound 604], the negative logarithm of the Ki (pKi) was > 7.00.

`CN1CCN(c2ncc(C(=O)N[C@H]3CC[C@@H](Oc4cc(N5CCOCC5)cc5nccnc45)CC3)cn2)CC1` [Compound 199]: the pKi was > 7.00.

`C[C@H](CO)Nc1ncnc(N[C@H]2CC[C@@H](Oc3cc(N4CCOCC4)cc4nccnc34)CC2)c1F` [Compound 380]: the pKi was > 7.00.

In the case of `CC(C)c1cnc(N[C@H]2CC[C@@H](Oc3cc(N4CCOCC4)cc4nccnc34)CC2)nc1` [Compound 209], the pKi is > 7.00.

With `CN1CCN(c2ccc(C(=O)N[C@H]3CC[C@@H](Oc4cc(N5CCOCC5)cc5nccnc45)CC3)nc2)CC1` [Compound 198], the pKi was > 7.00.

Regarding `N#Cc1cccc(N[C@H]2CC[C@@H](Oc3cc(N4CCOCC4)cc4nccnc34)CC2)n1` [Compound 195], the pKi is > 7.00.

In the case of `c1cnc(N[C@H]2CC[C@@H](Oc3cc(N4CCOCC4)cc4nccnc34)CC2)cn1` [Compound 33], the negative-log Ki (pKi) is > 7.00.

On to `COc1nccc(N[C@H]2CC[C@@H](Oc3cc(N4CCOCC4)cc4nccnc34)CC2)n1` [Compound 268], for which the pKi was > 7.00.

Take `C1=C(c2cc(O[C@H]3CC[C@@H](Nc4ncccn4)CC3)c3nccnc3c2)CCOC1` [Compound 36, N-[(cis)-4-[7-(3,6-dihydro-2H-pyran-4-yl)quinoxalin-5-yl]oxycyclohexyl]pyrimidin-2-amine]: the pKi was > 7.00.

Consider `N#Cc1ccnc(N[C@H]2CC[C@@H](Oc3cc(N4CCOCC4)cc4nccnc34)CC2)c1` [Compound 84], for which the negative logarithm of the Ki (pKi) was > 7.00.

With `O=C(O)c1ccnc(N[C@H]2CC[C@@H](Oc3cc(N4CCOCC4)cc4nccnc34)CC2)c1` [Compound 210], the pKi is > 7.00.

On to `CCOc1cc(N[C@H]2CC[C@@H](Oc3cc(N4CCOCC4)cc4nccnc34)CC2)ncn1` [Compound 215], for which the pKi was > 7.00.

For `CC(C)(O)c1cnc(N[C@H]2CC[C@@H](Oc3cc(N4CCOCC4)cc4nccnc34)CC2)nc1` [Compound 243], the negative-log Ki (pKi) is > 7.00.

Regarding `N#Cc1ccc(N[C@H]2CC[C@@H](Oc3cc(N4CCOCC4)cc4nccnc34)CC2)nn1` [Compound 55], the pKi was > 7.00.

In the case of `O=C(O)c1ccnc(N[C@H]2CC[C@@H](Oc3cc(N4CCOCC4)cc4nccnc34)CC2)n1` [Compound 93], the pKi was > 7.00.

As to `Nc1cnc(N[C@H]2CC[C@@H](Oc3cc(N4CCOCC4)cc4nccnc34)CC2)nc1` [Compound 143], the pKi was > 7.00.

Consider `O=C(O)c1ccc(N[C@H]2CC[C@@H](Oc3cc(N4CCOCC4)cc4nccnc34)CC2)nc1` [Compound 139], for which the pKi was > 7.00.

On to `COC(=O)c1cc(N[C@H]2CC[C@@H](Oc3cc(N4CCOCC4)cc4nccnc34)CC2)ncc1OC(C)(C)C` [Compound 407], for which the pKi was > 7.00.

For the compound `Cc1cnc(N[C@H]2CC[C@@H](Oc3cc(N4CCOCC4)cc4nccnc34)CC2)nc1N1CCCCC1` [Compound 567], the negative-log Ki (pKi) was > 7.00.

With `CN(C)c1cnc(N[C@H]2CC[C@@H](Oc3cc(N4CCOCC4)cc4nccnc34)CC2)nc1` [Compound 67], the pKi was > 7.00.

Turning to `N#Cc1cnc(N[C@H]2CC[C@@H](Oc3cc(N4CCOCC4)cc4nccnc34)CC2)nc1` [Compound 44], the pKi is > 7.00.

Regarding `c1cnc(N[C@H]2CC[C@@H](Oc3cc(N4C[C@H]5CC[C@@H](C4)O5)cc4nccnc34)CC2)nc1` [Compound 53], the pKi is > 7.00.

In the case of `Nc1ccc(N[C@H]2CC[C@@H](Oc3cc(N4CCOCC4)cc4nccnc34)CC2)nc1` [Compound 197], the negative logarithm of the Ki (pKi) is > 7.00.

As for `CN(C)C(=O)c1ccc(N[C@H]2CC[C@@H](Oc3cc(N4CCOCC4)cc4nccnc34)CC2)nc1` [Compound 145], the pKi is > 7.00.

Regarding `CN(C)C(=O)c1cnc(N[C@H]2CC[C@@H](Oc3cc(N4CCOCC4)cc4nccnc34)CC2)cn1` [Compound 108], the pKi is > 7.00.

Take `O=C(N[C@H]1CC[C@@H](Oc2cc(N3CCOCC3)cc3nccnc23)CC1)C1CC1` [Compound 61]: the pKi is > 7.00.

For the compound `c1cncc(N[C@H]2CC[C@@H](Oc3cc(N4CCOCC4)cc4nccnc34)CC2)c1` [Compound 272], the pKi was > 7.00.

For `CCCCc1cnc2cc(N3CCOCC3)cc(O[C@H]3CC[C@@H](Nc4ncc(Br)cn4)CC3)c2n1` [Compound 64], the pKi was > 7.00.

Take `Cc1cc(C#N)cnc1N[C@H]1CC[C@@H](Oc2cc(N3CCOCC3)cc3nccnc23)CC1` [Compound 242]: the pKi is > 7.00.

As to `COc1nc(Cl)cc(N[C@H]2CC[C@@H](Oc3cc(N4CCOCC4)cc4nccnc34)CC2)n1` [Compound 219], the pKi was > 7.00.

Turning to `COc1cncc(N[C@H]2CC[C@@H](Oc3cc(N4CCOCC4)cc4nccnc34)CC2)n1` [Compound 54], the negative logarithm of the Ki (pKi) was > 7.00.
